Measured values from patent US8735414B2 (priority 2009, dated 2014).
pIC50: −log10 of the molar value.

Assays:
[1] = tested on: bicistronic HCV replicon (replicon RNA, GenBank Accession No. AJ242654); assay: HCV Replicon Assay; assay type: cell-based; conditions: Hepatitis C virus, 72 h, read-out: Replicon IC50

CCc1cc2c(cc1F)c(C(N)=O)c(-c1ccc(S(=O)(=O)N[C@@H](C)C(F)(F)F)cn1)n2-c1cc(Cl)ccn1 [compound 1048, 1-(4-chloropyridin-2-yl)-6-ethyl-5-fluoro-2-(5-{[(2S)-1,1,1-trifluoropropan-2-yl]sulfamoyl}pyridin-2-yl)-1H-indole-3-carboxamide]
pIC50 [1]: 5.70 to 6.30
melting point: 200 to 204 °C

Cc1cc2c(cc1F)c(C(N)=O)c(-c1ccc(S(=O)(=O)N[C@H](C)C(F)(F)F)cn1)n2C1CCOCC1 [compound 767, 5-fluoro-6-methyl-1-(tetrahydro-2H-pyran-4-yl)-2-(5-{[(2R)-1,1,1-trifluoropropan-2-yl]sulfamoyl}pyridin-2-yl)-1H-indole-3-carboxamide]
pIC50 [1]: > 6.30
melting point: 258 to 262 °C

COc1ccc2c(C#N)c(-c3ncc(S(=O)(=O)NC(CF)CF)cn3)n(C3CCC3)c2c1 [compound 230, 2-(3-cyano-1-cyclobutyl-6-methoxy-1H-indol-2-yl)-N-(1,3-difluoropropan-2-yl)pyrimidine-5-sulfonamide]
pIC50 [1]: > 6.30
melting point: 217 to 219 °C

Cc1cc2c(C#N)c(-c3ccc(S(=O)(=O)NC(CF)CF)cn3)n(C3CCC3)c2cc1Cl [compound 505, 6-(6-chloro-3-cyano-1-cyclobutyl-5-methyl-1H-indol-2-yl)-N-(1,3-difluoropropan-2-yl)pyridine-3-sulfonamide]
pIC50 [1]: > 6.30
melting point: 195 to 196 °C

CCc1cc2c(cc1F)c(C#N)c(-c1ccc(S(=O)(=O)N[C@@H](C)C(F)(F)F)cn1)n2-c1cccnn1 [compound 975, 6-[3-cyano-6-ethyl-5-fluoro-1-(pyridazin-3-yl)-1H-indol-2-yl]-N-[(2S)-1,1,1-trifluoropropan-2-yl]pyridine-3-sulfonamide]
pIC50 [1]: > 6.30
melting point: 240 to 247 °C

CC(C)NS(=O)(=O)c1ccc(-c2c(C#N)c3ccc(C#N)cc3n2CC2CC2)nc1 [compound 348, 6-[3,6-dicyano-1-(cyclopropylmethyl)-1H-indol-2-yl]-N-(propan-2-yl)pyridine-3-sulfonamide]
pIC50 [1]: 5.70 to 6.30
melting point: 190 to 192 °C

Cc1cc2c(cc1F)c(C#N)c(-c1ccc(S(=O)(=O)NC(C)(C)C)cn1)n2C1CCCC1 [compound 643, N-tert-butyl-6-(3-cyano-1-cyclopentyl-5-fluoro-6-methyl-1H-indol-2-yl)pyridine-3-sulfonamide]
pIC50 [1]: > 6.30
melting point: 208 to 209 °C

CC(C)(CF)NS(=O)(=O)c1ccc(-c2c(C#N)c3ccc(OC(F)F)cc3n2C2CCCC2)nc1 [compound 67, 6-[3-cyano-1-cyclopentyl-6-(difluoromethoxy)-1H-indol-2-yl]-N-(1-fluoro-2-methylpropan-2-yl)pyridine-3-sulfonamide]
pIC50 [1]: > 6.30
melting point: 224 to 229 °C

CC(C)Cn1c(-c2ccc(S(=O)(=O)N[C@@H](C)C(F)(F)F)cn2)c(C#N)c2cc(F)c(OC(F)F)cc21 [compound 937, 6-[3-cyano-6-(difluoromethoxy)-5-fluoro-1-(2-methylpropyl)-1H-indol-2-yl]-N-[(2S)-1,1,1-trifluoropropan-2-yl]pyridine-3-sulfonamide]
pIC50 [1]: > 6.30
melting point: 130 to 134 °C

C[C@@H](NS(=O)(=O)c1cnc(-c2c(C#N)c3ccc(C4CC4)cc3n2C2CCC2)nc1)C(F)(F)F [compound 180, 2-(3-cyano-1-cyclobutyl-6-cyclopropyl-1H-indol-2-yl)-N-[(2R)-1,1,1-trifluoropropan-2-yl]pyrimidine-5-sulfonamide]
pIC50 [1]: 5.70 to 6.30
melting point: 211 to 212 °C

CCc1cc2c(cc1F)c(C#N)c(-c1ccc(S(=O)(=O)N[C@H](C)C(F)(F)F)cn1)n2C1CCC1 [compound 641, 6-(3-cyano-1-cyclobutyl-6-ethyl-5-fluoro-1H-indol-2-yl)-N-[(2R)-1,1,1-trifluoropropan-2-yl]pyridine-3-sulfonamide]
pIC50 [1]: > 6.30
melting point: 199 to 199.5 °C

Cc1cc2c(cc1F)c(C#N)c(-c1ncc(S(=O)(=O)N[C@@H](C)C(F)(F)F)cc1C)n2-c1ncccn1 [compound 888, 6-[3-cyano-5-fluoro-6-methyl-1-(pyrimidin-2-yl)-1H-indol-2-yl]-5-methyl-N-[(2S)-1,1,1-trifluoropropan-2-yl]pyridine-3-sulfonamide]
pIC50 [1]: > 6.30
melting point: 201 to 204 °C

Cc1cc2c(cc1F)c(C#N)c(-c1ccc(S(=O)(=O)N[C@@H](C)C(F)(F)F)cn1)n2-c1ccc(C(F)(F)F)cn1 [compound 740, 6-{3-cyano-5-fluoro-6-methyl-1-[5-(trifluoromethyl)pyridin-2-yl]-1H-indol-2-yl}-N-[(2S)-1,1,1-trifluoropropan-2-yl]pyridine-3-sulfonamide]
pIC50 [1]: > 6.30
melting point: 253 to 255 °C

CCc1cc2c(cc1F)c(C#N)c(-c1ccc(S(=O)(=O)N[C@@H](C)C(F)(F)F)cn1)n2-c1cccc(Cl)c1 [compound 1018, 6-[1-(3-chlorophenyl)-3-cyano-6-ethyl-5-fluoro-1H-indol-2-yl]-N-[(2S)-1,1,1-trifluoropropan-2-yl]pyridine-3-sulfonamide]
pIC50 [1]: > 6.30
melting point: 195 to 198 °C

CC(C)(C)S(=O)(=O)Nc1ccc(-c2c(C(N)=O)c3c(F)cc(C4CC4)cc3n2C2CCCCC2)cn1 [compound 1088, 2-{6-[(tert-butylsulfonyl)amino]pyridin-3-yl}-1-cyclohexyl-6-cyclopropyl-4-fluoro-1H-indole-3-carboxamide]
pIC50 [1]: > 6.30
melting point: 290 to 294 °C

CC(=O)c1ccc(-n2c(-c3ccc(S(=O)(=O)N[C@@H](C)C(F)(F)F)cn3)c(C#N)c3cc(F)c(C)cc32)s1 [compound 1035, 6-[1-(5-acetylthiophen-2-yl)-3-cyano-5-fluoro-6-methyl-1H-indol-2-yl]-N-[(2S)-1,1,1-trifluoropropan-2-yl]pyridine-3-sulfonamide]
pIC50 [1]: 5.70 to 6.30
melting point: 235.6 to 238.7 °C

C[C@H](NS(=O)(=O)c1ccc(-c2c(C#N)c3ccc(F)cc3n2C2CCC2)nc1)C1CC1 [compound 144, 6-(3-cyano-1-cyclobutyl-6-fluoro-1H-indol-2-yl)-N-[(1S)-1-cyclopropylethyl]pyridine-3-sulfonamide]
pIC50 [1]: > 6.30
melting point: 136 to 138 °C

Cc1cc2c(C#N)c(-c3ccc(S(=O)(=O)N[C@H](C)C(F)(F)F)cn3)n(C3CCC3)c2cc1Cl [compound 510, 6-(6-chloro-3-cyano-1-cyclobutyl-5-methyl-1H-indol-2-yl)-N-[(2R)-1,1,1-trifluoropropan-2-yl]pyridine-3-sulfonamide]
pIC50 [1]: 5.70 to 6.30
melting point: 200 to 200.5 °C

COc1cc2c(cc1F)c(C#N)c(-c1ncc(S(=O)(=O)NC(CF)CF)cn1)n2C1CCC1 [compound 150, 2-(3-cyano-1-cyclobutyl-5-fluoro-6-methoxy-1H-indol-2-yl)-N-(1,3-difluoropropan-2-yl)pyrimidine-5-sulfonamide]
pIC50 [1]: > 6.30
melting point: 245 to 247 °C

COc1ccc2c(C#N)c(-c3ccc(S(=O)(=O)N[C@@H](C)C(F)(F)F)cn3)n(C3CCCC3)c2c1 [compound 430, 6-(3-cyano-1-cyclopentyl-6-methoxy-1H-indol-2-yl)-N-[(2S)-1,1,1-trifluoropropan-2-yl]pyridine-3-sulfonamide]
pIC50 [1]: > 6.30
melting point: 209 to 216 °C

CCc1cc2c(cc1F)c(C(N)=O)c(-c1ccc(S(=O)(=O)N[C@@H](C)C(F)(F)F)cn1)n2-c1ccncc1 [compound 1045, 6-ethyl-5-fluoro-1-(pyridin-4-yl)-2-(5-{[(2S)-1,1,1-trifluoropropan-2-yl]sulfamoyl}pyridin-2-yl)-1H-indole-3-carboxamide]
pIC50 [1]: > 6.30
melting point: 219 to 224 °C

Cc1ccc2c(C#N)c(-c3ncc(S(=O)(=O)NC(C)C)cn3)n(C3CCC3)c2c1 [compound 169, 2-(3-cyano-1-cyclobutyl-6-methyl-1H-indol-2-yl)-N-(propan-2-yl)pyrimidine-5-sulfonamide]
pIC50 [1]: > 6.30
melting point: 217 to 219 °C

Cc1c(F)cc2c(C#N)c(-c3ccc(S(=O)(=O)NC(CF)CF)cn3)n(C3CCCC3)c2c1F [compound 509, 6-(3-cyano-1-cyclopentyl-5,7-difluoro-6-methyl-1H-indol-2-yl)-N-(1,3-difluoropropan-2-yl)pyridine-3-sulfonamide]
pIC50 [1]: > 6.30
melting point: 199 to 203 °C

Cc1cc2c(cc1F)c(C#N)c(-c1ccc(S(=O)(=O)N[C@@H](C)C(F)(F)F)cn1)n2-c1ccc(Cl)s1 [compound 1032, 6-[1-(5-chlorothiophen-2-yl)-3-cyano-5-fluoro-6-methyl-1H-indol-2-yl]-N-[(2S)-1,1,1-trifluoropropan-2-yl]pyridine-3-sulfonamide]
pIC50 [1]: > 6.30
melting point: 244.8 to 247.4 °C

COc1ccc2c(C#N)c(-c3ccc(S(=O)(=O)N[C@@H](C)C4CC4)cn3)n(C3CCC3)c2c1 [compound 429, 6-(3-cyano-1-cyclobutyl-6-methoxy-1H-indol-2-yl)-N-[(1S)-1-cyclopropylethyl]pyridine-3-sulfonamide]
pIC50 [1]: > 6.30
melting point: 193 to 199 °C

CCCn1c(-c2ccc(S(=O)(=O)N[C@H](C)C(F)(F)F)cn2)c(C#N)c2ccc(F)cc21 [compound 217, 6-(3-cyano-6-fluoro-1-propyl-1H-indol-2-yl)-N-[(2R)-1,1,1-trifluoropropan-2-yl]pyridine-3-sulfonamide]
pIC50 [1]: 5.30 to 5.70
melting point: 195 to 197 °C

Cc1cc2c(cc1F)c(C#N)c(-c1ccc(S(=O)(=O)N[C@@H](C)C(F)(F)F)cn1)n2-c1ccncc1F [compound 1014, 6-[3-cyano-5-fluoro-1-(3-fluoropyridin-4-yl)-6-methyl-1H-indol-2-yl]-N-[(2S)-1,1,1-trifluoropropan-2-yl]pyridine-3-sulfonamide]
pIC50 [1]: > 6.30
melting point: 204.2 to 210.5 °C

CSc1cc2c(cc1F)c(C#N)c(-c1ccc(S(=O)(=O)N[C@@H](C)C(F)(F)F)cn1)n2C1CCC1 [compound 772, 6-[3-cyano-1-cyclobutyl-5-fluoro-6-(methylsulfanyl)-1H-indol-2-yl]-N-[(2S)-1,1,1-trifluoropropan-2-yl]pyridine-3-sulfonamide]
pIC50 [1]: > 6.30
melting point: 201 to 203 °C
